Here are results for 1 molecule from patent publication US20130217132A1, “METHODS, COMPOSITIONS AND USE FOR ENHANCING CHEMICAL TOLERANCE BY MICROORGANISMS” (priority 2009, published 2013).

The subject of experiment [1] is BW25113 ArecA transformed with the blank vector (pBTL-1). As to the kind of experiment: MIC assay of furfural, blank vector strain. It counts as cell-based, E. coli. The settings on record: for MIC of furfural: blank vector, FIG. 18B. The procedure: (§1) In one exemplary method, assays were performed to determine minimum inhibitory concentration (MIC) of ethanol, furfural and acetate for BW25113 and MG1655 E. coli strains. […] Cells from each strain were inoculated from the same optical density into a total of 100 μL of varying furfural concentrations in a minimal media, for example using MOPS. Cell growth in the first 24 hr or 48 hr in the presence of furfural was monitored. The left bar in each pair for each indicated strain represents a first concentration of furfural that inhibited bacterial growth after 24 hr. The right bar for each strain represents the first concentration that inhibited growth after 48 hr. The MIC reads were the average of triplicates (n=3), and error bars represent standard deviation. […] ArecA signifies strains where the gene has been knocked out as previously described.
(§2) The minimum inhibitory concentration (MIC) of furfural of MG1655 and BW25113 with or without lpcA overexpression was determined. MIC assays were performed as described in Example 13. […] MIC reads were average of triplicates (n=3), and error bars represent standard deviation. The SDS-PAGE gel image in FIG. 17C represents LPS level of the cells indicated above the gel image (duplicate of each cell sample was presented). LPS was extracted from the indicated cells grown to exponential phase. Loading of LPS the SDS-PAGE gel was normalized to the cell number. The gel was stained for visualization after desired separation of LPS was obtained.
In another exemplary method, MIC was determined when MG1655 and BW25113 strains were fed with various carbon sources. MIC assays were performed in the presence of furfural. Glucose, Xylose or Ribose was supplemented with a minimal media for cell growth. […] MICs were read at the indicated time (24 hr or 48 hr), the average of triplicates was presented and error bars represent standard deviation. ‘Blank vector’ refers to the pBTL-1 vector, which served as the control. […]

Experiment [2] concerns aldehyde dehydrogenase (A1DH; EC 1.2.1.5). The note with it: 0.12 g/L furfural; cited from earlier work.
For a further experiment, the system named is MG1655 E. coli strain. As to the kind of experiment: Minimum inhibitory concentration (MIC) assay of furfural in MOPS minimal media. The note with it: Escherichia coli. It counts as cell-based. The procedure: as §1, §2
Experiment [3] deals with BW25113 araC::FRT-kan clone (JW0063). As to the kind of experiment: Cell growth (OD600) in MOPS minimal media with furfural, araC knockout. It is filed as cell-based, E. coli. The note with it: furfural 1 g/L. The procedure: (§3) In other exemplary methods, tolerance and expression of LPS was restored in a microorganism. FIG. 19 represents an example of restoration of tolerance and LPS expression in BW25113 ArecA clone. The indicated cells were grown in MOPS minimal media supplemented with glucose as a carbon source. Furfural was added to the media at the concentration of 1 g/L. Arabinose was added at 10 mM where indicated to gauge effect of AraC binding. The BW25113 araC::FRT-kan clone corresponds to JW0063, a BW25113 araC knockout mutant ordered from the Keio Collection directly. pBTL-1 represented the blank vector, and pLPCA referred to lpcA gene overexpression. Consistent with the Examples above, overexpression of lpcA gene increased cell growth (OD600 of 0.1 vs. 0.05) in the presence of furfural. Addition of Arabinose to the lpcA gene overexpression cells could further enhance the effect (OD600 of 0.3). […] To analyze the LPS level in the cells indicated in FIG. 19, LPS are extracted from the cells grown to exponential phase. Loading of LPS for the protein gel is normalized to the cell number. The gel is stained to visualize LPS protein bands after desired separation is obtained.
(§4) BW25113, MG1655, and derivatives were used where indicated. JW0063, an araC mutant of BW25113 was obtained from the Coli Genetic Stock Center (Yale). Overnight bacterial cultures were grown in Luria-Bertani medium with shaking. […]

Experiment [4] concerns BW25113 ArecA cells overexpressing lpcA gene (pLPCA). It counts as cell-based, E. coli. The note with it: for OD600 (cell growth in the presence of furfural): furfural 1 g/L, lpcA overexpression, FIG. 19. The procedure: (§5) FIGS. 17A-17B represent methods of identification of a gene related to restoring tolerance. Multiple genome-wide SCALE selection was performed in the presence of ethanol, furfural and acetate respectively. The data set obtained for each compound was compared to the others. Alleles enriched in all cases were identified. […] To restore tolerance, overexpression of identified genes in bacterial cells was performed. For example, lpcA ORF was cloned into the pBTL-1 vector. BW25113 ArecA cells transformed with the blank pBTL-1 vector were used as a control. BW25113 ArecA cells overexpressing lpcA gene were referred to as pLPCA. Cells were inoculated at a standard cell density into MOPS minimal media, supplemented with furfural, acetate or ethanol. After 24 hours, growth of the cells was analyzed.
(§6) The indicated cells were grown in MOPS minimal media supplemented with glucose as a carbon source. Furfural was added to the media at the concentration of 1 g/L. Arabinose was added at 10 mM where indicated to gauge effect of AraC binding. The BW25113 araC::FRT-kan clone corresponds to JW0063, a BW25113 araC knockout mutant ordered from the Keio Collection directly. pBTL-1 represented the blank vector, and pLPCA referred to lpcA gene overexpression. […] To analyze the LPS level in the cells indicated in FIG. 19, LPS are extracted from the cells grown to exponential phase. Loading of LPS for the protein gel is normalized to the cell number. The gel is stained to visualize LPS protein bands after desired separation is obtained.
(§7) BW25113, MG1655, and derivatives were used where indicated. JW0063, an araC mutant of BW25113 was obtained from the Coli Genetic Stock Center (Yale). Overnight bacterial cultures were grown in Luria-Bertani medium with shaking. MOPS minimal medium (previously presented) with 0.2% glucose as a carbon source, was used for all seed cultures and growth studies. Seed cultures were inoculated at 2 v/v % from an overnight culture and were grown to mid-exponential phase. Growth cultures were inoculated with 10 v/v % seed cultures of an OD600 of 0.195-0.200 for an initial optical density of ˜0.02. Carbenicillin and kanamycin were used where appropriate at 100 μg/ml and 30 μg/ml, respectively. The pBTL-1 vector (previously described) was used as the control blank vector for all growth studies. Genome-wide furfural selection

The test system of experiment [5] is BW25113 ArecA cells transformed with the blank pBTL-1 vector. It is filed as cell-based, E. coli. The procedure:
as §5, §6, §7

The test system of experiment [6] is BW25113 araC::FRT-kan clone with overexpression of lpcA gene. As to the kind of experiment: Cell growth (OD600) in MOPS minimal media with furfural, araC deletion plus lpcA overexpression. It counts as cell-based, E. coli. The settings on record: furfural 1 g/L, araC deletion and lpcA overexpression. The procedure: as §3, §4

In brackets after ≈: the same amount, converted by molar mass. Like-named read-outs stand apart in the source and are kept apart here.

With `O=Cc1ccco1` [furfural, furan-2-carbaldehyde], the MIC is 500 µg/mL in experiment [1] (Escherichia coli, BW25113, read-out: MIC of furfural); 1250 µg/mL in the experiment on MG1655 E. coli strain (MG1655, read-out: MIC of furfural); 1200 µg/mL (≈ 12.5 mM) with MG1655 E. coli strain (MG1655, after 24 hr, n=3, read-out: MIC (first concentration of furfural that inhibited bacterial growth)); 1800 µg/mL (≈ 18.7 mM) in the experiment with MG1655 E. coli strain (MG1655, after 48 hr, n=3, read-out: MIC (first concentration of furfural that inhibited bacterial growth)). Also, the MIC of furfural in experiment [1] (glucose as carbon source) and in experiment [1] (xylose as carbon source) was 500 µg/mL throughout. For the same molecule, in experiment [2], the activity reduction result is given as “more than 80%”. The “OD600 (cell growth in the presence of furfural)” value is on record as 0.5 in experiment [3] (araC::FRT-kan without lpcA overexpression, no Arabinose); 1.0 in experiment [3] (araC::FRT-kan, Arabinose 10 mM); 0.3 in experiment [4] (Arabinose 10 mM); 0.1 in experiment [4] (no Arabinose); 0.05 in experiment [5] (furfural 1 g/L, blank vector pBTL-1, no Arabinose, FIG. 19); 0.5 in experiment [6] (absence of Arabinose). Moreover, in experiment [6] (presence of Arabinose), the “OD600 (cell growth in the presence of furfural)” value is 1.0. In experiment [4] (furfural 1 g/l), the “improvement of final optical density by pLPCA in BW25113” value was 252±8%. Also, the “OD600 at 24 hr” value is “about 1.2” in experiment [4] (pLPCA cells, 1 g/L of furfural) and “about 0.2” in experiment [5] (control cells, 1 g/L of furfural).
